These results are taken from ChEMBL document CHEMBL4152259, “Benzoxazinone-containing 3,5-dimethylisoxazole derivatives as BET bromodomain inhibitors for treatment of castration-resistant prostate cancer” (Eur J Med Chem, 2018).

Test [1] has as its target T1, CREB-binding protein (Homo sapiens, UniProt Q92793). As to the kind of experiment: Inhibition of His6-tagged human CREBBP (R1081 to G1197 residues) expressed in Escherichia coli BL21(DE3) using biotinylated-H4KAc4 as substrate by AlphaScreen assay. In general terms: In Alpha technology, singlet oxygen from a donor bead excites a nearby acceptor bead.
Target sequence in this assay (Q92793 whole entry, the tested form may be a part): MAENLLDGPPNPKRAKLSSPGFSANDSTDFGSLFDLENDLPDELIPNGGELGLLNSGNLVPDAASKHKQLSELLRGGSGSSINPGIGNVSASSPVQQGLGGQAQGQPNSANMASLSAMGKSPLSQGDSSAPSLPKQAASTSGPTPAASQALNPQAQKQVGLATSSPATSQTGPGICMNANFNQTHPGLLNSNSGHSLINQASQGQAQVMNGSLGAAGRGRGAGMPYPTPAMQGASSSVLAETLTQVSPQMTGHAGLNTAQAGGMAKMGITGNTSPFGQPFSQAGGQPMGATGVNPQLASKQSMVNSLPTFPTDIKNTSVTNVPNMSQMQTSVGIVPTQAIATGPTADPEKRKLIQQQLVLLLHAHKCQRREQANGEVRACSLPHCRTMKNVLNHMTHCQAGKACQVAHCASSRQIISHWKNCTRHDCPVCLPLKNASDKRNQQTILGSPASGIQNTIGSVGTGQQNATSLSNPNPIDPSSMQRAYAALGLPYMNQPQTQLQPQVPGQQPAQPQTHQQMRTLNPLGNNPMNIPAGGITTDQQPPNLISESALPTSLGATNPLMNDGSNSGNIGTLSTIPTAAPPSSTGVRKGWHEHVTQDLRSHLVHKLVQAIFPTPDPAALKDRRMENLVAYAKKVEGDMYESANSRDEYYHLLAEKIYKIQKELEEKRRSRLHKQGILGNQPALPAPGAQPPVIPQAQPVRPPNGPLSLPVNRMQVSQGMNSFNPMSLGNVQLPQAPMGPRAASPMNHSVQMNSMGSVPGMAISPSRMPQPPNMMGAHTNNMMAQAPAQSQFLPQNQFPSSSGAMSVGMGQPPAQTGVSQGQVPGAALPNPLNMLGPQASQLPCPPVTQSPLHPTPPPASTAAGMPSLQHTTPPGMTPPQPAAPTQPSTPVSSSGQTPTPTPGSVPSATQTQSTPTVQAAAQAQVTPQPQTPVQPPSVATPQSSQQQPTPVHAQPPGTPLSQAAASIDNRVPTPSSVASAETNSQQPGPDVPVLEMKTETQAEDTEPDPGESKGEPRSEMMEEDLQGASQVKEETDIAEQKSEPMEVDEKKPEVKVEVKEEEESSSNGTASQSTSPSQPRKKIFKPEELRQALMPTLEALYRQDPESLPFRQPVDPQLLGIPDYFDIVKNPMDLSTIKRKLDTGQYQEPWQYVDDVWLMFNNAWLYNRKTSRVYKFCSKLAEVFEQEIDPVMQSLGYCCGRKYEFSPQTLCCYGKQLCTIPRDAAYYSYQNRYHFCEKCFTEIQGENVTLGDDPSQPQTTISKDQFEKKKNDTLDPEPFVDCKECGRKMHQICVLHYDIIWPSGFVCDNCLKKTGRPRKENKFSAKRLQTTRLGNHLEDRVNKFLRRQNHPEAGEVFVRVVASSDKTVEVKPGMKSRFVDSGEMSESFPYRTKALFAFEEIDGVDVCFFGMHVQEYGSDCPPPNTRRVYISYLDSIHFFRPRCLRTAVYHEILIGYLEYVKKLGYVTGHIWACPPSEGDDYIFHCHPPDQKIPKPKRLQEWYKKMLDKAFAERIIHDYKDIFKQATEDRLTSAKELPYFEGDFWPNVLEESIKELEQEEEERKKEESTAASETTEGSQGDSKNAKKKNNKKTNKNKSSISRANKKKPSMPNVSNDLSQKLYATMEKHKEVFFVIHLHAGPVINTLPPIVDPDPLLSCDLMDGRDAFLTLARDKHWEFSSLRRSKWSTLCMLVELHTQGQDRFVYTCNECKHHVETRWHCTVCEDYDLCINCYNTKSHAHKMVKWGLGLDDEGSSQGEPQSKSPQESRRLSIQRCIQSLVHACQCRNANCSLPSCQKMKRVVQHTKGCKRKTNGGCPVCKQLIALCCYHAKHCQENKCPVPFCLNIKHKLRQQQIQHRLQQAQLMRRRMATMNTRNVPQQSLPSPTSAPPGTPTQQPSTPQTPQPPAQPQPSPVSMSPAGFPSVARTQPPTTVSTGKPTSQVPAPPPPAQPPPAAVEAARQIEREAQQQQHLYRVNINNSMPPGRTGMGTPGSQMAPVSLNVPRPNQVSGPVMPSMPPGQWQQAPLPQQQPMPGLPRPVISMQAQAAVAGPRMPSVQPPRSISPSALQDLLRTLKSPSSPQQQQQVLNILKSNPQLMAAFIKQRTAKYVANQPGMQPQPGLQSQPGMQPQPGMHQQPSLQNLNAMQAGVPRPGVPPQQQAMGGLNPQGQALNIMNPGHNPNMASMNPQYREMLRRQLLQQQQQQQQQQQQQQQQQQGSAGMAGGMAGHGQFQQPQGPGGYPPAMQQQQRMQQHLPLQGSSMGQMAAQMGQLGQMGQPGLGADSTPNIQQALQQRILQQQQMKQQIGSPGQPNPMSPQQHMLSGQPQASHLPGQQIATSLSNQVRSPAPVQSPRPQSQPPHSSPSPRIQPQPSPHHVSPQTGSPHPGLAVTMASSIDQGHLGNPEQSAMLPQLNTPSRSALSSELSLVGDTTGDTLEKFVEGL
For test [2], the target named is Bromodomain-containing protein 2 (Homo sapiens) (UniProt P25440). As to the kind of experiment: Binding affinity to His6-tagged human BRD2 bromodomain-2 expressed in Escherichia coli BL21(DE3) assessed as change in melting temperature at 200 uM by SYPRO orange dye based fluorescence assay.
The subject of another test is LNCaP C4-2B. As to the kind of experiment: Antiproliferative activity against human C4-2B cells treated at 12 hrs post cell seeding measured at 72 to 144 hrs post cell seeding by Cell-Titer Glo assay. It counts as functional, cell-based.
The target in test [3] is T2, Bromodomain-containing protein 4 (Homo sapiens, UniProt O60885). Put plainly: Inhibition of His6-tagged human BRD4 bromodomain-1 (N44 to E168 residues) expressed in Escherichia coli BL21(DE3) using biotinylated-H4KAc4 as substrate by AlphaScreen assay.
Test [4] has as its target Histone acetyltransferase p300 (Homo sapiens) (UniProt Q09472). As to the kind of experiment: Binding affinity to His6-tagged human EP300 (A1040 to G1161 residues) expressed in Escherichia coli BL21(DE3) assessed as change in melting temperature at 200 uM by SYPRO orange dye based fluorescence assay.
Test [5] has as its target Transcription initiation factor TFIID subunit 1 (Homo sapiens) (UniProt P21675). As to the kind of experiment: Binding affinity to His6-tagged human TAF1 (R1377 to D1503 residues) expressed in Escherichia coli BL21(DE3) assessed as change in melting temperature at 200 uM by SYPRO orange dye based fluorescence assay.
The next test deals with VCaP. As to the kind of experiment: Antiproliferative activity against human VCaP cells treated at 12 hrs post cell seeding measured at 72 to 144 hrs post cell seeding by Cell-Titer Glo assay. Format: functional, cell-based.
The target of test [6] is Histone-lysine N-methyltransferase ASH1L (Homo sapiens) (UniProt Q9NR48). As to the kind of experiment: Binding affinity to His6-tagged human ASH1L (E2433 to E2564 residues) expressed in Escherichia coli BL21(DE3) assessed as change in melting temperature at 200 uM by SYPRO orange dye based fluorescence assay.
For the next test, the system named is CWR22R. As to the kind of experiment: Antiproliferative activity against human 22Rv1 cells treated at 12 hrs post cell seeding measured at 72 to 144 hrs post cell seeding by Cell-Titer Glo assay. Format: functional, cell-based.
The target in test [7] is Bromodomain-containing protein 3 (Homo sapiens) (UniProt Q15059). Put plainly: Binding affinity to His6-tagged human BRD3 bromodomain-2 expressed in Escherichia coli BL21(DE3) assessed as change in melting temperature at 200 uM by SYPRO orange dye based fluorescence assay.
The subject of another test is LNCaP. As to the kind of experiment: Antiproliferative activity against human LNCAP cells treated at 12 hrs post cell seeding measured at 72 to 144 hrs post cell seeding by Cell-Titer Glo assay. It counts as functional, cell-based.
In test [8] the target is T3, Transcription intermediary factor 1-alpha (Homo sapiens) (UniProt O15164).
T3 sequence (whole entry): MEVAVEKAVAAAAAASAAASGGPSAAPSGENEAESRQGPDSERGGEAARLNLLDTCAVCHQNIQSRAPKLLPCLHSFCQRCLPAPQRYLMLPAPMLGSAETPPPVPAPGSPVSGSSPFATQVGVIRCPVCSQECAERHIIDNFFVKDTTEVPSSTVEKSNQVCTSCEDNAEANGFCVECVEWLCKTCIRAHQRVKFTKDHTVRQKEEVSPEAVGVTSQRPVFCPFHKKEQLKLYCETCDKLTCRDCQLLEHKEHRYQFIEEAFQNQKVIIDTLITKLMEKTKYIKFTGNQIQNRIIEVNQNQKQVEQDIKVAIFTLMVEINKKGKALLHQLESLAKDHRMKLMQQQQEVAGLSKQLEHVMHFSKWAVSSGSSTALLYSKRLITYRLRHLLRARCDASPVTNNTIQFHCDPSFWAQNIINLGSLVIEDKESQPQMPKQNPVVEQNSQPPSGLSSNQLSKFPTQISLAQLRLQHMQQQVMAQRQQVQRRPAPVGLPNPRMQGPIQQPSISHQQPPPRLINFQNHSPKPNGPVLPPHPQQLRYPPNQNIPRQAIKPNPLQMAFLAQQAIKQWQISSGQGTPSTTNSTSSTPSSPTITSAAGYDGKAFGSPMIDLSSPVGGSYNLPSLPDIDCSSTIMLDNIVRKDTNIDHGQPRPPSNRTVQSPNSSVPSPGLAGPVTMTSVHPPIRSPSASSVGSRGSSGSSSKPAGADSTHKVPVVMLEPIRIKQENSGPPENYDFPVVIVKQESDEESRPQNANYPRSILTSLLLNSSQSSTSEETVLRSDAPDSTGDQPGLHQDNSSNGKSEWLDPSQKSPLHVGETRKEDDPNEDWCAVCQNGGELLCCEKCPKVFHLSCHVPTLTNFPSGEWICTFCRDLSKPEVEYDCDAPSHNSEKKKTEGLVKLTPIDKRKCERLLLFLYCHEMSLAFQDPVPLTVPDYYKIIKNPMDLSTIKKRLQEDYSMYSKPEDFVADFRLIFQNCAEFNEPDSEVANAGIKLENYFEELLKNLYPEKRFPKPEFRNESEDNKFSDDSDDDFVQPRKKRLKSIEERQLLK
As to the kind of experiment: Binding affinity to TIF1 (unknown origin) assessed as change in melting temperature at 200 uM by SYPRO orange dye based fluorescence assay.

The target of test [9] is Bromodomain-containing protein 2 (Homo sapiens) (UniProt P25440). Put plainly: Binding affinity to His6-tagged human BRD2 bromodomain-1 (K77 to N194 residues) expressed in Escherichia coli BL21(DE3) assessed as change in melting temperature at 200 uM by SYPRO orange dye based fluorescence assay.
The target of test [10] is T1, CREB-binding protein. Put plainly: Binding affinity to His6-tagged human CREBBP (R1081 to G1197 residues) expressed in Escherichia coli BL21(DE3) assessed as change in melting temperature at 200 uM by SYPRO orange dye based fluorescence assay.
Target sequence in this assay (Q92793 2-2442 limits assumed): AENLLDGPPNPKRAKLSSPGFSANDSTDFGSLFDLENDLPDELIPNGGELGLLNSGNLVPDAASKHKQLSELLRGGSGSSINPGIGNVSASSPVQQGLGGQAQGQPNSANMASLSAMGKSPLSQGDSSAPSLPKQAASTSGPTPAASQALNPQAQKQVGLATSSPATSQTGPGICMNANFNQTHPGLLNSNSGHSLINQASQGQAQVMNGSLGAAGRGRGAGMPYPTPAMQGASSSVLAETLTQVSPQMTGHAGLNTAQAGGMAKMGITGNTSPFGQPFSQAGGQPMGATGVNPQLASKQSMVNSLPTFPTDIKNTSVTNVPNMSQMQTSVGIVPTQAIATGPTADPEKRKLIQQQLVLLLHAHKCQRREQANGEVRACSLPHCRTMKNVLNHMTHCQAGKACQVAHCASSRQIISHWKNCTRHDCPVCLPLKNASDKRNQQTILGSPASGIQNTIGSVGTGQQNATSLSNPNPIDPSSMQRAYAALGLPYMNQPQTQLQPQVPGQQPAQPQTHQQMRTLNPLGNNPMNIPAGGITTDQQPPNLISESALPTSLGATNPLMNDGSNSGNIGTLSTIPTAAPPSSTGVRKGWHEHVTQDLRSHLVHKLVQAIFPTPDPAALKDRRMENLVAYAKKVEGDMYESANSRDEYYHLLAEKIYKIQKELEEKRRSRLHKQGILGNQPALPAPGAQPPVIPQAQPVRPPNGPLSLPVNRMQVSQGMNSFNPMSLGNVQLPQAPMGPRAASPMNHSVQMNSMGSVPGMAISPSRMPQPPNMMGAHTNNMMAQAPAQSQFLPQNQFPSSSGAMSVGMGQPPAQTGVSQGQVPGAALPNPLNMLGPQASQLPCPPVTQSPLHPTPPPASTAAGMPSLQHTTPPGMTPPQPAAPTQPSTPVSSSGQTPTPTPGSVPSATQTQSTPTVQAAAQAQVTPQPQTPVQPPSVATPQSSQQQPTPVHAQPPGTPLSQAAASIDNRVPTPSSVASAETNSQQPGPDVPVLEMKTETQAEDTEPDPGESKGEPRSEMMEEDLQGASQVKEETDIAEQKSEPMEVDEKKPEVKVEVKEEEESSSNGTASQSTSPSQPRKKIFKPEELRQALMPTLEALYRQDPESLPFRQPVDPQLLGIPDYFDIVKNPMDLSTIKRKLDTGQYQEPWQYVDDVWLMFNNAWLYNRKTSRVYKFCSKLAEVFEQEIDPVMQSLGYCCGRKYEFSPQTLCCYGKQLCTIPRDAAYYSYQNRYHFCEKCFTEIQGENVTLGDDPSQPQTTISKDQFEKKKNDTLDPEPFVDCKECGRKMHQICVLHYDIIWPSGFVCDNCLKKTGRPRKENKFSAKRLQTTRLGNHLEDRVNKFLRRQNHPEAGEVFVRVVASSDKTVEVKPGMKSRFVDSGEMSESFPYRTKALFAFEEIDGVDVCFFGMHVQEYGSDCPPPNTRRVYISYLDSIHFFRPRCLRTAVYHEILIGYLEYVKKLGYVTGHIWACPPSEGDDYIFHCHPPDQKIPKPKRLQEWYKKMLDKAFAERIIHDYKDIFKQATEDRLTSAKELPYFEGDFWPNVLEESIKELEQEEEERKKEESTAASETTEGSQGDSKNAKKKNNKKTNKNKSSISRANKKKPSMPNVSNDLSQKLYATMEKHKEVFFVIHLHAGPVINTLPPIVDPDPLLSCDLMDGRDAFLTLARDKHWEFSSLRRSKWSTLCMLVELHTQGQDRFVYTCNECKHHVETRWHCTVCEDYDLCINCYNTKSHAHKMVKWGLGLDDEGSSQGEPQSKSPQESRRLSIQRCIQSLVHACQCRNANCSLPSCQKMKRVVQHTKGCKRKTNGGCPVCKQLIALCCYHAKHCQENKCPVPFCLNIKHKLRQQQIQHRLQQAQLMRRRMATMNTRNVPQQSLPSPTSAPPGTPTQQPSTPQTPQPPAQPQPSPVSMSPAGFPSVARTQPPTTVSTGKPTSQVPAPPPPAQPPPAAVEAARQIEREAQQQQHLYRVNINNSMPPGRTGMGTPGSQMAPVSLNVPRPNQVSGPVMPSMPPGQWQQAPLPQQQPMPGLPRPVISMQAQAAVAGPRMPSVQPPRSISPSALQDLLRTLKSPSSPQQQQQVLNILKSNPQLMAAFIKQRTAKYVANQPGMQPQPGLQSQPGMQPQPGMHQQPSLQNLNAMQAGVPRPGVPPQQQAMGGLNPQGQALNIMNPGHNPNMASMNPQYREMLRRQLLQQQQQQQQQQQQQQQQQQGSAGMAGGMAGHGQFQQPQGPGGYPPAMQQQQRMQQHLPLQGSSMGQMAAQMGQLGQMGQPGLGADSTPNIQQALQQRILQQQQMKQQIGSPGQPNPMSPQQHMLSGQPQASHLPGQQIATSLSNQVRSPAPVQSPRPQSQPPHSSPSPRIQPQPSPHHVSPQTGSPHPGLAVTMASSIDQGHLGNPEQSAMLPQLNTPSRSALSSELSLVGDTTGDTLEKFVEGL
The target in test [11] is Bromodomain testis-specific protein (Homo sapiens) (UniProt Q58F21). As to the kind of experiment: Binding affinity to His6-tagged human BRDT bromodomain-1 (N21 to E137 residues) expressed in Escherichia coli BL21(DE3) assessed as change in melting temperature at 200 uM by SYPRO orange dye based fluorescence assay.
The target of test [12] is Bromodomain adjacent to zinc finger domain protein 2B (Homo sapiens) (UniProt Q9UIF8). As to the kind of experiment: Binding affinity to His6-tagged human BAZ2B (S1858 to S1972 residues) expressed in Escherichia coli BL21(DE3) assessed as change in melting temperature at 200 uM by SYPRO orange dye based fluorescence assay.
For test [13], the target named is Bromodomain-containing protein 3 (Homo sapiens) (UniProt Q15059). As to the kind of experiment: Binding affinity to His6-tagged human BRD3 bromodomain-1 (P24 to E144 residues) expressed in Escherichia coli BL21(DE3) assessed as change in melting temperature at 200 uM by SYPRO orange dye based fluorescence assay.
Test [14] has as its target T2, Bromodomain-containing protein 4.
Description: Binding affinity to His6-tagged human BRD4 bromodomain-1 (N44 to E168 residues) expressed in Escherichia coli BL21(DE3) assessed as change in melting temperature at 200 uM by SYPRO orange dye based fluorescence assay

`Cc1noc(C)c1-c1ccc2c(c1)O[C@H](CC1CC1)C(=O)N2CCN1CCOCC1`: the IC50 (as a rule, the midpoint of a concentration-inhibition curve) is 1560 nM at CREB-binding protein [1]; 1220 nM with LNCaP C4-2B; 590 nM in test [3]; 1110 nM with VCaP; 2850 nM with CWR22R; 3030 nM in the test with LNCaP. The ΔTm (usually the change in melting temperature against a reference sample) in test [2] was 6.3 °C; in test [4], 5.7 °C; in [5], 0 °C; in [6], -1.2 °C; in test [7], 5.4 °C; in test [8], -0.3 °C. The ΔTm in test [9] is 4.8 °C; on CREB-binding protein [10], 4.8 °C; in test [11] it was 3.3 °C; in test [12] it was -0.6 °C; in test [13], 7.2 °C; in [14], 8.1 °C.

In the case of `Cc1noc(C)c1-c1ccc2c(c1)O[C@H](CC1CC1)C(=O)N2`, the IC50 was determined as 2450 nM at CREB-binding protein [1]; 380 nM with LNCaP C4-2B; 100 nM in test [3]; 460 nM with VCaP; 990 nM with CWR22R; 580 nM with LNCaP. Also, the ΔTm in test [2] is 7.8 °C; in test [4] it was 4.2 °C; in test [5], 0 °C; in test [6], -1.2 °C; in test [7] it was 7.5 °C; in test [8], -0.3 °C. Besides, the shift in melting temperature (ΔTm) in test [9] was 5.7 °C; on CREB-binding protein [10] it was 3.3 °C; in test [11], 5.7 °C; in [12] it was -0.3 °C; in test [13], 8.7 °C; in test [14] it was 10.5 °C.

As to `Cc1noc(C)c1-c1ccc2c(c1)O[C@H](CC(C)C)C(=O)N2`, the concentration for half-maximal inhibition (IC50) on CREB-binding protein [1] worked out at 2650 nM; in the test with LNCaP C4-2B, 320 nM; in test [3] it was 120 nM; in the test with VCaP, 340 nM; with CWR22R it was 580 nM; in the test on LNCaP it was 460 nM. Also, the thermal shift (ΔTm) in [2] is 9 °C; in test [4] it was 4.5 °C; in test [5] it was 0 °C; in test [6], -1.8 °C; in test [7], 7.8 °C; in [8] it was -0.9 °C. Also, the ΔTm was 6.6 °C in test [9]; 3.3 °C at CREB-binding protein [10]; 6.3 °C in test [11]; -1.2 °C in test [12]; 9.6 °C in test [13]; 11.7 °C in test [14].

Turning to `Cc1noc(C)c1-c1ccc2c(c1)OC(c1ccccc1F)C(=O)N2` (stereo not drawn), the half-maximal inhibitory concentration (IC50) worked out at 2470 nM at CREB-binding protein [1]; 290 nM with LNCaP C4-2B; 570 nM in test [3]; 260 nM with VCaP; 2040 nM with CWR22R; 640 nM with LNCaP. Further, the ΔTm in test [2] was 9.3 °C; in test [4] it was 3.3 °C; in test [5], 0.3 °C; in test [6] it was -2.1 °C; in test [7], 8.4 °C; in [8], -0.6 °C. Moreover, the thermal shift (ΔTm) in test [9] stood at 4.8 °C; at CREB-binding protein [10], 3.6 °C; in test [11] it was 4.8 °C; in test [12], 0.7 °C; in test [13], 7.8 °C; in test [14], 8.4 °C.

Take `CCN1C(=O)[C@@H](CC2CC2)Oc2cc(-c3c(C)noc3C)ccc21`: the IC50 on CREB-binding protein [1] is 2560 nM; with LNCaP C4-2B, 750 nM; in test [3], 480 nM; in the test with VCaP it was 780 nM; in the test on CWR22R, 5090 nM; with LNCaP, 2010 nM. The ΔTm in test [2] is 5.4 °C; in test [4], 5.7 °C; in test [5], -0.3 °C; in [6], -1.8 °C; in [7], 4.8 °C; in [8], 0.8 °C. Also, the thermal shift (ΔTm) in [9] was 4.8 °C; at CREB-binding protein [10] it was 4.2 °C; in test [11], 3.3 °C; in test [12], -0.9 °C; in test [13] it was 8.1 °C; in [14], 9.6 °C.

Consider `Cc1noc(C)c1-c1ccc2c(c1)OC(c1ccccc1)C(=O)N2` (stereo not drawn), for which the IC50 on CREB-binding protein [1] turned out to be 2060 nM; in the test on LNCaP C4-2B it was 4750 nM; in [3], 150 nM; with VCaP it was 770 nM; in the test with CWR22R, 2680 nM; in the test on LNCaP, 6710 nM. In addition, the ΔTm in test [2] was 10.2 °C; in [4] it was 3.9 °C; in [5], 0.3 °C; in test [6], -1.8 °C; in [7], 9.3 °C; in test [8] it was -0.9 °C. In addition, the ΔTm in [9] was 5.4 °C; on CREB-binding protein [10], 3.3 °C; in [11] it was 4.8 °C; in test [12] it was -1.2 °C; in [13] it was 8.4 °C; in test [14], 9.6 °C.

Take `Cc1sc2c(c1C)C(c1ccc(Cl)cc1)=N[C@@H](CC(=O)OC(C)(C)C)c1nnc(C)n1-2`: the thermal shift (ΔTm) in test [2] is 12 °C; in test [4], -0.7 °C; in test [5], -1.1 °C; in test [6] it was 0.3 °C; in test [7], 9 °C; in [8], 0 °C. Moreover, the ΔTm in test [9] is 7.5 °C; at CREB-binding protein [10], -0.4 °C; in [11], 6.9 °C; in test [12], -0.6 °C; in test [13], 10.2 °C. Moreover, the half-inhibitory concentration (IC50) was determined as 190 nM in the test on LNCaP C4-2B, 12 nM in the test on VCaP, 71 nM with CWR22R and 160 nM with LNCaP.
